{"source": "patent US20230172884A1", "about": "“USE OF BUCILLAMINE IN THE TREATMENT OF INFECTIOUS DISEASES” (Revive Therapeutics Ltd, priority 2020, published 2023)", "key": {"COVID-19": {"test_system": "COVID-19", "assay": "Phase 3 multi-center, randomized, double-blind, placebo-controlled study of Bucillamine in patients with mild-moderate COVID-19", "format": "in vivo, human", "details": "Bucillamine 100 mg or 200 mg TID for up to 14 days, preliminary indications to date", "protocol": "A Phase 3 confirmatory clinical trial titled, “A Multi-Center, Randomized, Double-Blind, Placebo-Controlled Study of Bucillamine in Patients with Mild-Moderate COVID-19”, was undertaken to enroll up to 1,000 patients randomized 1:1:1 to receive Bucillamine 100 mg three times a day (“TID”), Bucillamine 200 mg TID or placebo TID for up to 14 days. The primary objective is to compare the frequency of hospitalization or death in patients with mild-moderate COVID-19 receiving Bucillamine therapy with those receiving placebo. The primary endpoint is the proportion of patients meeting a composite endpoint of hospitalization or death from the time of the first dose through Day 28 following randomization. Efficacy was assessed by comparing clinical outcomes (death or hospitalization), disease severity using the 8-category NIAID COVID ordinal scale, supplemental oxygen use, and progression of COVID-19 between patients receiving standard-of-care plus Bucillamine (high dose and/or low dose) and patients receiving standard-of-care plus placebo."}, "[1]": {"details": "versus N-acetylcysteine (NAC); cited from earlier work"}, "[2]": {"details": "statement with literature references 8, 9; cited from earlier work"}, "[3]": {"details": "not told; cited from earlier work"}}}
{"smiles": "CC(C)(S)C(=O)NC(CS)C(=O)O", "note": "(stereo not drawn) [Bucillamine, N-(mercapto-2-methylpropionyl)-l-cysteine]", "values": [{"measurement": "hospitalization or death from COVID-19 (composite clinical outcome)", "setting": "COVID-19", "result": "none of the patients receiving Bucillamine in the trial have to date been hospitalised for COVID-19 or have died from COVID-19"}, {"measurement": "potency as a thiol donor in vivo relative to NAC", "setting": "[1]", "result": 16, "unit": "fold"}, {"measurement": "toxicity", "setting": "[2]", "result": "non-toxic"}, {"measurement": "cell permeability", "setting": "[3]", "result": "highly cell permeable"}]}
